Data as given in patent US12428406B2 (PMV Pharmaceuticals, Inc., priority 2019, dated 2025).

Target: T1, p53 Y220C (Homo sapiens, UniProt P04637, Y220C)
T1 construct: The recombinant protein was a truncation mutant containing only amino acids 94-312 of p53; made in house; host or cells: E. coli
Experiment: In vitro DNA binding activity assay (HTRF / TR-FRET): stabilization of p53 Y220C and increase of its DNA binding activity
Type: biochemical
Details: recombinant His-tagged p53 Y220C DNA binding domain (aa 94-312), biotin-labeled consensus DNA, incubated at 27° C. or 29° C. for 60 min
Procedure, shortened: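 His-tagged p53 Y220C, E. coli-expressed, binding biotin-labeled consensus DNA measured by HTRF (anti-His-APC, streptavidin-europium). Compounds from 4.5 mM DMSO stocks, 3-fold serial dilutions; incubations at room temperature 15 min, then 20 min. SC150 = concentration raising DNA binding by 50%.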

T1 sequence (P04637 94-312, change not shown): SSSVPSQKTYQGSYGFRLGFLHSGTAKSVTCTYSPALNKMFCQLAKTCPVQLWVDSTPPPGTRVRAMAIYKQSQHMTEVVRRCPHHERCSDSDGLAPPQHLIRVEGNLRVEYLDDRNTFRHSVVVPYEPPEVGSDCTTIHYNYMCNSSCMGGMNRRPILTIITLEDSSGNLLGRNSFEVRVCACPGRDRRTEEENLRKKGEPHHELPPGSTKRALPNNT

| SC150 (concentration of the compound required to increase the DNA binding activity by 50%) | Compound |
| --- | --- |
| + (+ = 0 μM ≤ SC150 < 0.05 μM) | COc1cc(S(C)(=O)=O)ccc1NCC#Cc1cc2c(NC3CCN(C[C@@H]4COC(=O)O4)CC3)cccc2n1CC(F)(F)F [Compound 563A, (4R)-4-({4-[(2-{3-[(4-methanesulfonyl-2-methoxyphenyl)amino]prop-1-yn-1-yl}-1-(2,2,2-trifluoroethyl)-1H-indol-4-yl)amino]piperidin-1-yl}methyl)-1,3-dioxolan-2-one] |
| + (+ = 0 μM ≤ SC150 < 0.05 μM) | COc1cc(S(=O)(=O)N(C)C)ccc1NCC#Cc1cc2c(NC3CCN(CC(O)CO)CC3)cccc2n1CC(F)(F)F (centres unmarked) [Compound 564A, 4-{[3-(4-{[1-(2,3-dihydroxypropyl)piperidin-4-yl]amino}-1-(2,2,2-trifluoroethyl)-1H-indol-2-yl)prop-2-yn-1-yl]amino}-3-methoxy-N,N-dimethylbenzene-1-sulfonamide] |
| + (+ = 0 μM ≤ SC150 < 0.05 μM) | COc1cc(S(C)(=O)=O)ccc1NCC#Cc1cc2c(NC3CCN(CCOC(C)=O)CC3)cccc2n1CC(F)(F)F [Compound 565A, 2-{4-[(2-{3-[(4-methanesulfonyl-2-methoxyphenyl)amino]prop-1-yn-1-yl}-1-(2,2,2-trifluoroethyl)-1H-indol-4-yl)amino]piperidin-1-yl}EtOAc] |
| + (+ = 0 μM ≤ SC150 < 0.05 μM) | COc1cc(S(C)(=O)=O)ccc1NCC#Cc1cc2c(NC3CCN(C[C@@H]4COC(C)(C)O4)CC3)cccc2n1CC(F)(F)F [Compound 566A, N-(1-{[(4R)-2,2-dimethyl-1,3-dioxolan-4-yl]methyl}piperidin-4-yl)-2-{3-[(4-methanesulfonyl-2-methoxyphenyl)amino]prop-1-yn-1-yl}-1-(2,2,2-trifluoroethyl)-1H-indol-4-amine] |
| + (+ = 0 μM ≤ SC150 < 0.05 μM) | COc1cc(S(C)(=O)=O)ccc1NCC#Cc1cc2c(NC3CCN(CC(C)OC(C)=O)CC3)cccc2n1CC(F)(F)F (centres unmarked) [Compound 567A, 1-{4-[(2-{3-[(4-methanesulfonyl-2-methoxyphenyl)amino]prop-1-yn-1-yl}-1-(2,2,2-trifluoroethyl)-1H-indol-4-yl)amino]piperidin-1-yl}propan-2-yl acetate] |
| + (+ = 0 μM ≤ SC150 < 0.05 μM) | COc1cc(S(N)(=O)=O)ccc1NCC#Cc1cc2c(NC3CCN(C[C@@H]4COC(C)(C)O4)CC3)cccc2n1CC(F)(F)F [Compound 568A, 4-[(3-{4-[(1-{[(4R)-2,2-dimethyl-1,3-dioxolan-4-yl]methyl}piperidin-4-yl)amino]-1-(2,2,2-trifluoroethyl)-1H-indol-2-yl}prop-2-yn-1-yl)amino]-3-methoxybenzene-1-sulfonamide] |
| + (+ = 0 μM ≤ SC150 < 0.05 μM) | COCC(O)CN1CCC(Nc2cccc3c2cc(C#CCNc2ccc(S(C)(=O)=O)cc2OC)n3CC(F)(F)F)CC1 (centres unmarked) [Compound 569A, 1-{4-[(2-{3-[(4-methanesulfonyl-2-methoxyphenyl)amino]prop-1-yn-1-yl}-1-(2,2,2-trifluoroethyl)-1H-indol-4-yl)amino]piperidin-1-yl}-3-methoxypropan-2-ol] |
| + (+ = 0 μM ≤ SC150 < 0.05 μM) | COCCN(C)S(=O)(=O)c1ccc(NCC#Cc2cc3c(NC4CCN(CC(O)CO)CC4)cccc3n2CC(F)(F)F)c(OC)c1 (centres unmarked) [Compound 572A, 4-{[3-(4-{[1-(2,3-dihydroxypropyl)piperidin-4-yl]amino}-1-(2,2,2-trifluoroethyl)-1H-indol-2-yl)prop-2-yn-1-yl]amino}-3-methoxy-N-(2-methoxyethyl)-N-methylbenzene-1-sulfonamide] |
| + (+ = 0 μM ≤ SC150 < 0.05 μM) | COCC(O)CN1CCC(Nc2cccc3c2cc(C#CCNc2ccc(S(N)(=O)=O)cc2OC)n3CC(F)(F)F)CC1 (centres unmarked) [Compound 574A, 4-{[3-(4-{[1-(2-hydroxy-3-methoxypropyl)piperidin-4-yl]amino}-1-(2,2,2-trifluoroethyl)-1H-indol-2-yl)prop-2-yn-1-yl]amino}-3-methoxybenzene-1-sulfonamide] |
| + (+ = 0 μM ≤ SC150 < 0.05 μM) | COCC(=O)N1CCC(Nc2cccc3c2cc(C#CCNc2ccc(S(N)(=O)=O)cc2OC)n3CC(F)(F)F)CC1 [Compound 575A] |
| + (+ = 0 μM ≤ SC150 < 0.05 μM) | COc1cc(S(=O)(=O)N2CCN(C(C)=O)CC2)ccc1NCC#Cc1cc2c(NC3CCN(CC(O)CO)CC3)cccc2n1CC(F)(F)F (centres unmarked) [Compound 577A, 1-[4-(4-{[3-(4-{[1-(2,3-dihydroxypropyl)piperidin-4-yl]amino}-1-(2,2,2-trifluoroethyl)-1H-indol-2-yl)prop-2-yn-1-yl]amino}-3-methoxybenzenesulfonyl)piperazin-1-yl]ethan-1-one] |
| + (+ = 0 μM ≤ SC150 < 0.05 μM) | COc1cc(S(C)(=O)=O)ccc1NCC#Cc1cc2c(NC3CCN(C[C@H]4COC(=O)O4)CC3)cccc2n1CC(F)(F)F [Compound 578A, (4S)-4-({4-[(2-{3-[(4-methanesulfonyl-2-methoxyphenyl)amino]prop-1-yn-1-yl}-1-(2,2,2-trifluoroethyl)-1H-indol-4-yl)amino]pipendin-1-yl}methyl)-1,3-dioxolan-2-one] |
| + (+ = 0 μM ≤ SC150 < 0.05 μM) | COCC(CN1CCC(Nc2cccc3c2cc(C#CCNc2ccc(S(C)(=O)=O)cc2OC)n3CC(F)(F)F)CC1)OC (centres unmarked) [Compound 580A, N-[1-(2,3-dimethoxypropyl)piperidin-4-yl]-2-{3-[(4-methanesulfonyl-2-methoxyphenyl)amino]prop-1-yn-1-yl}-1-(2,2,2-trifluoroethyl)-1H-indol-4-amine] |
| + (+ = 0 μM ≤ SC150 < 0.05 μM) | COCC(CN1CCC(Nc2cccc3c2cc(C#CCNc2ccc(S(N)(=O)=O)cc2OC)n3CC(F)(F)F)CC1)OC (centres unmarked) [Compound 581A, 4-{[3-(4-{[1-(2,3-dimethoxypropyl)piperidin-4-yl]amino}-1-(2,2,2-trifluoroethyl)-1H-indol-2-yl)prop-2-yn-1-yl]amino}-3-methoxybenzene-1-sulfonamide] |
| + (+ = 0 μM ≤ SC150 < 0.05 μM) | COc1cc(S(=O)(=O)N2CCOCC2)ccc1NCC#Cc1cc2c(NC3CCN(CC(O)CO)CC3)cccc2n1CC(F)(F)F (centres unmarked) [Compound 582A, 3-(4-{[2-(3-{[2-methoxy-4-(morpholine-4-sulfonyl)phenyl]amino}prop-1-yn-1-yl)-1-(2,2,2-trifluoroethyl)-1H-indol-4-yl]amino}piperidin-1-yl)propane-1,2-diol] |
| + (+ = 0 μM ≤ SC150 < 0.05 μM) | COc1cc(C(N)=O)ccc1NCC#Cc1cc2c(NC3CCN(C[C@@H](O)CO)CC3)cccc2n1CC(F)(F)F [Compound 583A] |
| + (+ = 0 μM ≤ SC150 < 0.05 μM) | COc1cc(S(C)(=O)=O)ccc1NCC#Cc1cc2c(NC3CCN(CCOC(=O)C(C)C)CC3)cccc2n1CC(F)(F)F [Compound 584A, 2-{4-[(2-{3-[(4-methanesulfonyl-2-methoxyphenyl)amino]prop-1-yn-1-yl}-1-(2,2,2-trifluoroethyl)-1H-indol-4-yl)amino]piperidin-1-yl} ethyl 2-methylpropanoate] |
